# Data as given in the METLIN SMRT retention time set (Domingo-Almenara et al. 2019).
# Assay: gradient 5% acetonitrile 3 min, to 50% in 2 min, to 85% in 15 min, held 3 min, 100 µL/min
# Conditions: column: Zorbax Extend-C18 2.1 x 50 mm; eluents: water / acetonitrile, 0.1% formic acid
# Summary of the method: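 A Zorbax Extend-C18 column (2.1 × 50 mm, 1.8 μm) run at 100 μL/min with water and acetonitrile, both containing 0.1% formic acid, separated mixtures of ~100 pure standards. The HPLC was coupled to a quadrupole time-of-flight mass spectrometer operated in positive and negative ionization mode, with dead and dwell volumes of 40 μL and 900 μL. Each retention time was taken from a computationally picked adduct peak that was then manually inspected.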
row,RP-LC retention time,Compound
1,739 s,CC(=O)Oc1cc2c(s1)CCN(C(C(=O)C1CC1)c1ccccc1F)C2 (stereo not given)
2,737 s,c1ccc(-n2nnc(-c3noc(-c4cccnc4)n3)c2-c2ccncc2)cc1
3,1040 s,Cc1ccc(CNC(=O)COc2ccccc2-c2nnc(-c3ccccc3)o2)o1
4,742 s,Cc1oc(C2CCN(C(=O)Cc3cccs3)CC2)nc1C(=O)N1CCSCC1
5,612 s,CCCn1ccc2oc(C)c(C(=O)N3CCN(C4CCCCC4)CC3)c2c1=O
6,1150 s,COC(=O)CCSCc1ccc(-c2onc(C)c2NC(=O)OC(C)c2ccccc2Cl)cc1 (stereo not given)
7,903 s,Cc1cc(-c2nnc(-c3ccccc3)o2)c(C)n1CC(=O)NCc1ccccc1
8,973 s,COc1ccc(-c2nnc(Cc3nc(-c4ccccc4Cl)no3)o2)cc1
9,755 s,COc1cccc(NC(=O)C2CCN(S(=O)(=O)c3ccc4c(c3)CCCC(=O)N4)CC2)c1
10,716 s,COCCN1C(=O)CCc2cc(NS(=O)(=O)c3cccc4nsnc34)ccc21
11,618 s,CCNC(=O)c1ccc2nc(C)c(C)nc2c1
12,951 s,O=C(NCCCc1ccccc1)C1CCCN(c2nc3ccsc3c(=O)n2-c2ccc(F)cc2)C1 (stereo not given)
13,580 s,CCc1cc(C(=O)N2CCN(CC)CC2)nc2cc(-c3ccccn3)nn12
14,1290 s,Cc1sc2ncnc(N3CCCC(C)C3)c2c1C(=O)Nc1ccc(Cl)cc1 (stereo not given)
15,775 s,CC1(C)Cc2cccc(OCC(=O)Nc3cccc(-c4ccn[nH]4)c3)c2O1
16,576 s,CN(C)CC1(O)CCC2(CCN(C(=O)c3ccsc3)CC2)CC1
17,829 s,COc1ccc2[nH]cc(CCN3CC(C(=O)Nc4ccc(Cl)cc4)CC3=O)c2c1 (stereo not given)
18,850 s,O=C(Nc1ccc2c(c1)N(C(=O)c1cccs1)CCC2)c1ccccc1Br
19,834 s,COc1ccc(NC(=O)Cn2cnc3nc(N4CCC(C)CC4)ncc3c2=O)cc1Cl
20,875 s,Cc1ccc2[nH]cc(CCNC(=O)CS(=O)Cc3cnn(-c4ccccc4)c3-n3cccc3)c2c1 (stereo not given)
21,1330 s,CCN1C(=O)COc2ccc(-c3noc(-c4cc(C)cc(C)c4)n3)cc21
22,1160 s,CC(C)CC(=O)Nc1ccc(S(=O)(=O)N2CCCC2c2nc(-c3ccc(Cl)cc3)no2)cc1 (stereo not given)
23,709 s,O=C(NC1CCCCCC1)c1nc(-c2ccnc(N3CCCC3)c2)no1
24,604 s,COCc1cc(=O)n(CC(=O)Nc2c(C)cccc2C)c(N)n1
25,653 s,Cn1cnc(S(=O)(=O)NCCC2CCN(C(=O)c3ccccc3)CC2)c1
26,691 s,CS(=O)(=O)N1CCCCC1c1nncn1Cc1ccccc1 (stereo not given)

# Continued, molecule first:
row,Compound,RP-LC retention time
1,CCc1ccccc1S(=O)(=O)N1C[C@@H]2C(=O)N(C(CC)c3cccs3)C(=O)[C@@H]2C1 (stereo not given in full),1070 s
2,Cc1sc2ccn(C)c(=O)c2c1C(=O)NCc1ccc(N2CCOCC2)cc1,647 s
3,CCCNc1nc(C(=O)OCC)nc2ccccc12,626 s
4,Cc1cc(C)c(-c2noc(C)n2)c(NC(=O)c2cc(F)cc(F)c2)n1,787 s
5,COc1ccc(Cl)cc1S(=O)(=O)N1CCc2nn(CC3CC3)c(=O)n2CC1,800 s
6,CCc1cccc(NS(=O)(=O)c2c(C)sc(C)c2-c2cc(C)[nH]n2)c1,1130 s
7,Cc1nc(-c2cccnc2)nc2c1CCC(=O)N2Cc1ccncc1,554 s
8,CN(Cc1cc(C(F)(F)F)ccc1Cl)C1CCc2nn(C)c(=O)n2CC1 (stereo not given),610 s
9,COC[C@@H]1CN(S(=O)(=O)c2cn(C)cn2)C[C@H]1c1ccccn1,567 s
10,Clc1ccc(Nc2nc3ccccc3c3nc(C4CCCCC4)[nH]c23)cc1Cl,1130 s
11,Cc1ccc(C2Cn3cnc(C(=O)N4CCC(C(=O)NCCc5ccccc5)CC4)c3CO2)cc1 (stereo not given),826 s
12,CN(C)c1cc(C(=O)NC2CC2)c2ccccc2n1,565 s
13,Cn1cccc1C(=O)C(=O)NCc1cccc(Br)c1,918 s
14,Cc1nn(-c2cc(N(C)C)ncn2)c(C)c1CCC(=O)N1CCC(Cc2ccccc2)CC1,969 s
15,O=C(Cc1nnc(-c2ccccc2)o1)NCc1ccccn1,577 s
16,CCc1ccc(CNC(=O)C2CCN(Cc3cn(CC)c4ccc(Cl)cc34)CC2)cc1,825 s
17,CCn1cc(C(=O)Nc2ccc(F)c(Cl)c2)c2cccnc21,965 s
18,CC(Oc1ccccc1F)C(=O)Nc1ccc(-c2nc(-c3ccc(F)cc3)no2)cc1 (stereo not given),1260 s
19,Cc1cc2[nH]c(C(=O)Nc3ccc(Cl)cc3F)c(CN3CCOCC3)c2s1,759 s
